Measured values: US4772595A, “Synthetic virginiamycin M1 analogs” (Merck & Co., Inc., priority 1986, dated 1988)
pIC50: −log10 of the molar value.

Experiments:
[1] = system: CCK and gastrin receptors; experiment: Binding to both CCK and gastrin receptors (summary statement); conditions: summary in words
Experimental: Biological activity of virginiamycin M1 and the compounds of Formulae I, II, III and IV is determined by gastrin receptor binding, pancreas CCK receptor binding, brain CCK binding and microbial growth inhibition assays.

Brain CCK Receptor = biological target: T1, Brain CCK Receptor (Cavia porcellus, UniProt H0VZC5); experiment: Brain Cholecystokinin Receptor Binding Assay (cerebral cortex); conditions: guinea pig cerebral cortex, 125I-CCK-8, 25° C., 2 hours
T1 construct: The cerebral cortex was dissected and used as a receptor source; from tissue; host or cells: cerebral cortex membranes of male Hartley guinea pigs
T1 sequence (H0VZC5 1-426): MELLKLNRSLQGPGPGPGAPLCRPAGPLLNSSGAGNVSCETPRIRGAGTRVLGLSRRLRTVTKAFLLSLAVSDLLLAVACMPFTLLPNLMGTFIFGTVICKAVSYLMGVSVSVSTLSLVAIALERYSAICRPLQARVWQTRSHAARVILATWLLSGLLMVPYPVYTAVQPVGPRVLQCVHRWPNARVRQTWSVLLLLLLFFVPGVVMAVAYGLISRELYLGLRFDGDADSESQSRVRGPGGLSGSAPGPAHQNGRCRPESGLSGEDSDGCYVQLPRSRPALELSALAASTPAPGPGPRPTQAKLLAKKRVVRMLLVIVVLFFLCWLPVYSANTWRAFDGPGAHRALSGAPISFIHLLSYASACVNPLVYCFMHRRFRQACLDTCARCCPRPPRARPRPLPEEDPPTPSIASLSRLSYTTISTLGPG
Experimental: CCK-8 binding was performed according to the description for the pancreatic method, with modifications by Saito et al., J. Neurochem., 37, 483 (1981).
The brains from male Hartley guinea pigs (300-500 g) were removed and placed in ice-cold 50 mM Tris HCl plus 7.58 g/L Trizma-7.4 [pH 7.4 at 25° C.]. The cerebral cortex was dissected and used as a receptor source and each gram of fresh guinea pig brain tissue was homogenized in 10 ml of Tris/Trizma buffer, pH 7.4, with a Brinkmann polytron PT-10. The homogenates were centrifuged at 42,000×g for 15 minutes, then the resulting pellets were resuspended in 200 volumes of binding assay buffer (10 mM N-2-hydroxy-ethyl-piperazine-N'-2-ethane-sulfonic acid (HEPES), pH 7.7 at 25° C., MgCl2, 1 mM ethylene glycol-bis-(β-amino-ethyl-ether-N,N'-tetraacetic acid (EGTA), 0.4% BSA and 0.25 mg/ml bacitracin, pH 6.5).
The remainder of the binding assay method was as described for the pancreatic method, Example 6, except that the reaction mixtures were incubated at 25° C. for 2 hours before filtration and the filters were washed with HEPES buffer.

gastric acid secretion = conditions: cited from earlier work
gram-positive bacteria = conditions: cited from earlier work
[2] = C-terminal octapeptide vs CCK-33; cited from earlier work

Compound: CC1=C\C=C\C(=O)Cc2nc(co2)C(=O)N2CCC=C2C(=O)O[C@H](C(C)C)[C@H](C)/C=C/C(=O)NC\C=C\1 [Compound III]
- binding to CCK and gastrin receptors [1]: bind to both CCK and gastrin receptors
- pIC50 (Brain CCK Receptor): 7.88

Compound: CC1=C\CCC(=O)Cc2nc(co2)C(=O)N2CCC=C2C(=O)O[C@H](C(C)C)[C@H](C)/C=C/C(=O)NC\C=C\1 [IV]
- binding to CCK and gastrin receptors [1]: bind to both CCK and gastrin receptors
- pIC50 (Brain CCK Receptor): 6.57

Compound: Gastrin-17: 17-amino acid form of gastrin, C-terminal fragment of the 34-amino acid form
- potency relative to Gastrin-13 (gastric acid secretion; Gastrin-17 vs Gastrin-13): 2.5 times
- potency relative to Gastrin-34 (gastric acid secretion; Gastrin-17 vs Gastrin-34): 5 times

Compound: CC1=C\[C@@H](O)CC(=O)Cc2nc(co2)C(=O)N2CCC=C2C(=O)O[C@H](C(C)C)[C@H](C)/C=C/C(=O)NC\C=C\1 [Virginiamycin M1]
- binding to CCK and gastrin receptors [1]: bind to both CCK and gastrin receptors
- antibacterial specificity (gram-positive bacteria): generally specific for gram-positive bacteria and prevent cell multiplication
- pIC50 (Brain CCK Receptor): 6.24

Compound: CC1=C\C=C\[C@H](O)Cc2nc(co2)C(=O)N2CCC=C2C(=O)O[C@H](C(C)C)[C@H](C)/C=C/C(=O)NC\C=C\1 [Compound II]
- binding to CCK and gastrin receptors [1]: bind to both CCK and gastrin receptors
- pIC50 (Brain CCK Receptor): 8.21

Compound: C-terminal octapeptide: C-terminal octapeptide has the same efficacy as CCK-33
- efficacy relative to CCK-33 [2]: same efficacy as CCK-33
- potency relative to CCK-33 [2]: approximately ten

Compound: CC1=C\C=C\[C@@H](O)Cc2nc(co2)C(=O)N2CCC=C2C(=O)O[C@H](C(C)C)[C@H](C)/C=C/C(=O)NC\C=C\1 [Compound I]
- binding to CCK and gastrin receptors [1]: bind to both CCK and gastrin receptors
- pIC50 (Brain CCK Receptor): 8.11
